These results are taken from patent US20120308554A1, “VEGF-D/VEGFR2/3-MEDIATED REGULATION OF DENDRITES” (UNIVERSITAT HEIDELBERG, priority 2011, published 2012).

The subject of data set [1] is cultured hippocampal neurons. In words: Whole-cell patch clamp recordings of cultured hippocampal neurons. Type of data set: cell-based, mice. From the text:
Whole-cell patch clamp recordings were made at room temperature from cultured hippocampal neurons plated on coverslips secured with a platinum ring in a recording chamber (Open access chamber-1, Science Products GmbH, Hofheim, Germany) mounted on a fixed-stage upright microscope (BX51WI, Olympus, Hamburg, Germany). Differential interference contrast optics, infrared illumination and a CCD camera (PCO, Visitron Systems, Puchheim, Germany) connected to a contrast enhancement unit (Argus, Hamamatsu, Herrsching am Ammersee, Germany) were used to view neurons on a video monitor. Recordings were made with a Multiclamp 700A amplifier, digitized through a Digidata 1322A A/D converter and acquired using pClamp software (Molecular Devices, CA, USA). All membrane potentials have been corrected for the calculated junction potential of −11 mV (JPCalc program by Dr. Peter H. Barry). mEPSCs and whole-cell AMPA (10 μM, 6 ml/min, Biotrend) responses were recorded as known in the art except for the solutions and that a holding potential of −71 mV was used and both TTX (1 μM, Biotrend, Cologne, Germany) and gabazine (5 μM, Biotrend) were included in the ACSF. TTX was applied before gabazine to prevent the induction of action potential bursting. Access (range: 7-18 MU) and membrane resistance (see Table 1) were monitored before and after mEPSC recordings and data was rejected if changes greater than 20% occurred.
Patch electrodes (3-4 MU) were made from borosilicate glass (1.5 mm, WPI, Sarasota, Fla., USA) and filled with intracellular solution (containing in mM: KCH3SO4, 145; NaCl, 8; HEPES, 10; K2-phosphocreatine, 10; Mgt-ATP, 4; Na3-GTP, 0.3; pH 7.35 with KOH). The extracellular solution was an artificial cerebrospinal fluid (ACSF, in mM: NaCl, 125; KCl, 3.5; MgCl2, 1.3; NaH2PO4, 1.2; CaCl2, 2.4; glucose, 25; NaHCO3, 26; gassed with 95% O2 and 5% CO2).
On the technique in general: Patch clamp records ionic current or voltage across a cell membrane.

The subject of a further data set is VEGFC. In words: qRT-PCR analysis of VEGFC expression in hippocampal neurons. The data set is classed as cell-based, mice. The following applies: hippocampal neurons infected with rAAV. The protocol:
Total RNA was isolated at DIV10 to DIV13 from hippocampal primary neuron cultures or isolated brain tissues with Rneasy Mini Kit (Qiagen, Hilden, Germany) including an optional Dnase I treatment at room temperature for 15 min according to manufacturer's instructions (Qiagen). 1.2 μg of extracted RNA was reverse transcribed into first strand cDNA using High Capacity cDNA Reverse Transcription kit (Applied Biosystems, Foster City, Calif.).
Quantitative reverse transcriptase PCR (qRT-PCR) was done on an ABI7300 thermal cycler using Universal qRT-PCR master mix with TaqMan Gene Expression Assays for the indicated genes (Applied Biosystems). The following TaqMan Gene Expression Assays were used in this study: Gusb (Mm00446953_m1), cFos (Mm00487425_m1), VEGFD (Mm00438965_m1), VEGFC (Mm01202432_m1), VEGF (Mm01281449_m1), VEGFR3 (Mm01292618_m1), beta-actin (Mm00607939_s1), beta-2 microglobulin (Mm00437762_m1), CBP (Mm01342435_m1), p38 MAPK alpha (Mm00442497_m1), p38 MAPK beta (Mm00440955_m1). Expression of target genes was normalized against the expression of Gusb as endogenous control gene. Data were derived from at least 5 independent experiments.
(In general: Quantitative PCR measures a nucleic acid by following its amplification.)

Another data set has as its system hippocampal cultures. Nature of the data set: MEA recordings of spontaneous network activity. The data set is classed as cell-based, mice. The following applies: infected cultures versus rAAV-shSCR or rAAV-emptymC. The protocol:
MEA recordings were done as known in the art. From DIV7 to DIV13, recordings of spontaneous network activity were acquired for 5 min once per day.

A further data set relates to hippocampal neurons. Type of data set: cell-based, mice. The note with it: hippocampal neurons infected with rAAV. From the text:
E: Analysis of apoptosis of hippocampal cultures uninfected or infected with the indicated rAAVs. Values are expressed as percentage of the total number of cells analyzed.

The test system of another data set is CA1 pyramidal neurons. In words: Golgi staining-based morphometric analysis of CA1 neurons after stereotaxic rAAV delivery. The data set is classed as in vivo, C57BL/6 mice. The note with it: CA1 basal dendrites, 2.5 weeks after viral gene delivery. The procedure:
(§1) rAAVs were delivered by stereotaxic injection into the right dorsal hippocampus of 2 months old male C57BL/6 mice. For the Golgi staining-based morphometric analysis, viral particles were unilaterally injected over a period of 20 min at the following coordinates relative to Bregma: anteroposterior, −2.1 mm; mediolateral, −1.4 mm; dorsoventral, −1.4 to −1.8 mm from the skull surface. For behavior experiments mice were injected bilaterally.
For 3D Sholl Analysis, total dendritic length and spine morphology were calculated using Object-Image freeware software with a specific set of macros (written by Dr. E. Ruthazer, McGill University, Quebec). Briefly, a z-Stack acquisition was imported, calibrated in Object-Image and manually traced. Total dendritic length was then computed. For Sholl analysis, the shell interval was set at 5 μm. All analyses were performed blind. In all in vitro experiments, for each condition, a minimum of 12 neurons from three independent preparations was analyzed. For the Golgi staining quantifications of 20 neurons for each condition from 4 different injected animals per viral construct were traced and analyzed.
Golgi impregnation was performed using a Rapid Golgi Stain Kit (FD Neuro Technologies) according to the manufacturer's protocol. […]

The subject of another data set is C57BL/6 mice. In words: Contextual fear conditioning. The data set is classed as in vivo. The following applies: versus rAAV-shSCR. The procedure:
as §1
The behavioral experiments started three weeks after stereotaxic delivery of rAAVs. Mice were habituated to the experimental room and handled once a day for three consecutive days before testing started. Two different sets of mice were used for Morris water maze and contextual fear conditioning experiments. At the end of the experiments, virus infection was assessed.
On the training day, mice were placed into the conditioning chamber (23×23×35 cm; TSE, Bad Homburg, Germany) and received a 2 second, 0.5 mA scrambled foot shock 148 seconds after placement into the chamber. Mice were removed from the chamber 30 seconds after the shock. During testing, mice received one 5 minute exposure to the same context in the absence of foot shock 24 hours after conditioning. Freezing, defined as absence of movement except for respiration, was scored continuously during training and testing sessions.

On to “shVEGFD: shRNA targeting mouse VEGFD mRNA (GGGCTTCAGGAGCGAACAT; SEQ ID NO: 1), expressed from rAAV vector or plasmid with U6 promoter”, for which the AMPA response amplitudes result in data set [1] (bath applied AMPA 10 μM) is reported as “smaller”. For the same substance, in data set [1] (infected neurons), the “AP induc thresh (current injection required to induce an action potential)” value came to 162 ± 14 pA, the “AP thresh (membrane potential at which action potentials initiate)” value is −46.5 ± 1.1 mV, the “Cm (membrane capacitance)” value worked out at 68.3 ± 3.3 pF and the “Rm (membrane resistance)” value is listed as 316 ± 19 MΩ. Further, in data set [1] (infected neurons), the “Vrest (resting membrane potential)” value was −82.9 ± 1.9 mV, the “mEPSC τ decay” value is given as 4.14 ± 0.15 ms and the “mEPSC τ rise” value was 2.91 ± 0.10 ms. In data set [1] (transfected neurons), the “AP induc thresh (current injection required to induce an action potential)” value was 149 ± 14 pA, the “AP thresh (membrane potential at which action potentials initiate)” value is −45.6 ± 1.6 mV, the “Cm (membrane capacitance)” value was determined as 59.7 ± 3.8 pF and the “Rm (membrane resistance)” value turned out to be 352 ± 29 MΩ. Further, in data set [1] (transfected neurons), the “Vrest (resting membrane potential)” value is −79.7 ± 2.0 mV, the “mEPSC τ decay” value worked out at 3.82 ± 0.26 ms and the “mEPSC τ rise” value is 2.82 ± 0.23 ms. Further, in data set [1] (versus respective shSCR expressing controls), the “mEPSC inter-event intervals (IEIs, 1/frequency)” value is given as “longer mEPSC inter-event intervals”. Besides, in the data set with VEGFC, the “Expression of VEGFC” value is listed as “not affected”. The spike frequencies result in the data set with hippocampal cultures is listed as “reduced”. Also, in the data set with hippocampal neurons, the cell death result was “no increase in cell death”. Besides, the “total length of dendrites and their complexity in vivo” value in the data set with CA1 pyramidal neurons is “reduced both the total length of dendrites and their complexity”. In the data set with C57BL/6 mice, the “basal exploratory activity and reaction to shock during training” value was “not different between the two groups”; the “freezing during the 24-hour test session” value is listed as “significantly lower levels of freezing”.
